Assay results from patent publication US5264209A, “Modified HIL-6” (Kirin-Amgen, Inc., priority 1990, dated 1993).

Legend:
[1] = tested on: platelets in peripheral blood; test: In vivo platelet production in mice, once a day for five days (Examples 13 and 16); parameters: species or system Balb/c mice; details: sixth day
Description: (§1) In Examples 7-10 and 13-17, the PEGylated hIL-6 polypeptides of the present invention were dissolved in PBS containing 0.1% normal mouse serum. The concentration of the solutions was adjusted so that the final volume administered was 100 μl.
The hIL-6 produced in Example 4 or its PEGylated derivatives produced in Examples 11 and 12 were administered subcutaneously to four Balb/c mice (8 weeks old, female) once a day for five days. Control mice were administered with the vehicle. Blood samples were taken on the sixth day and platelets in peripheral blood were counted.
The PEGylated hIL-6 Fr120'-2 was administered to five mice once a day for five days at a dose of 1 μg/mouse and blood samples were taken on the sixth day as described in Example 13.

[2] = Acute toxicity (Example 17); type: in vivo, Balb/c mice; details: for deaths during the ten day period after the administration: 1, 5, or 10 mg/kg s.c.; for acute LD50: s.c., ten day observation, 14400 min
Description: as §1
The acute toxicity of PEGylated hIL-6 was investigated. The hIL-6 of Example 4 or its PEGylated derivatives (Fr45-2, Fr100-2, and Fr120-2), produced in Examples 4, 11, and 12, were administered subcutaneously to five Balb/c mice (6 weeks old, male, 21-23 g weight) at a dose of either 1, 5, or 10 mg/kg weight (as polypeptide).

[3] = Castell et al. 1988; cited from earlier work
[4] = Table 6, 1 μg/mouse/injection s.c. once a day for five days
[5] = Table 6, 10 μg/mouse/injection s.c. once a day for five days
[6] = Table 6, 0.5 μg/mouse/injection s.c. once a day for five days
[7] = Table 6, 5 μg/mouse/injection s.c. once a day for five days
[8] = Table 7, 0.1 μg/mouse/injection s.c. once a day for five days
[9] = Table 7, 0.5 μg/mouse/injection s.c. once a day for five days
[10] = Table 7, 1 μg/mouse/injection s.c. once a day for five days
[11] = Table 7, 5 μg/mouse/injection s.c. once a day for five days
[12] = Table 7, 10 μg/mouse/injection s.c. once a day for five days

Substance	Number of platelets (% of control) [1, 4]	Number of platelets (% of control) [1, 5]	Number of platelets (% of control) [1, 6]	Number of platelets (% of control) [1, 7]	deaths during the ten day period after the administration [2]	acute LD50 [2]	Number of platelets (% of control) [1, 8]	Number of platelets (% of control) [1, 9]	Number of platelets (% of control) [1, 10]	Number of platelets (% of control) [1, 11]	Number of platelets (% of control) [1, 12]	in vivo half-life in blood [3]
Fr100-1: fraction of PEG(10000)IL-6, average 5.3 free amino groups per molecule	100.0 % of control	211.1 % of control	–	–	–	–	–	–	–	–	–	–
Fr100-2: fraction of PEG(10000)IL-6, average 7.4 free amino groups per molecule	148.9 % of control	250.8 % of control	107.9 % of control	205.9 % of control	None of the mice was observed to die	over 10 mg/kg weight	–	–	–	–	–	–
Fr100-3: fraction of PEG(10000)IL-6, average 8.6 free amino groups per molecule	141.1 % of control	204.4 % of control	113.7 % of control	212.7 % of control	–	–	–	–	–	–	–	–
Fr100-4: fraction of PEG(10000)IL-6, average 9.4 free amino groups per molecule	142.5 % of control	203.2 % of control	138.7 % of control	226.5 % of control	–	–	–	–	–	–	–	–
Fr100-5: fraction of PEG(10000)IL-6, average 10.0 free amino groups per molecule	142.8 % of control	202.4 % of control	111.3 % of control	225.9 % of control	–	–	–	–	–	–	–	–
Fr120-1: fraction of PEG(12000)IL-6, average 5.2 free amino groups per molecule	–	–	–	–	–	–	141.3 % of control	215.5 % of control	221.5 % of control	246.3 % of control	201.3 % of control	–
Fr120-2: fraction of PEG(12000)IL-6, average 7.6 free amino groups per molecule	–	–	–	–	None of the mice was observed to die	over 10 mg/kg weight	167.4 % of control	227.8 % of control	233.2 % of control	244.3 % of control	213.2 % of control	–
Fr120-3: fraction of PEG(12000)IL-6, average 8.7 free amino groups per molecule	–	–	–	–	–	–	170.1 % of control	205.9 % of control	242.7 % of control	243.1 % of control	221.4 % of control	–
Fr120-4: fraction of PEG(12000)IL-6, average 9.2 free amino groups per molecule	–	–	–	–	–	–	161.5 % of control	203.4 % of control	221.4 % of control	229.0 % of control	200.4 % of control	–
Fr120-5: fraction of PEG(12000)IL-6, average 9.8 free amino groups per molecule	–	–	–	–	–	–	154.1 % of control	191.5 % of control	225.4 % of control	224.8 % of control	235.9 % of control	–
IL-6: interleukin-6, multi-functional cytokine	–	–	–	–	–	–	–	–	–	–	–	very short
